Columns and labels:
HepG2 xenograft tumor = experiment: In vivo antitumor assay, HepG2 xenograft model; set-up: species or system BALB/c mice; details: i.p., 1, 5 and 10 mg/kg
Description: Male BALB/c mice (6 weeks old) were purchased from Changzhou Cavens Experimental Animal Limited Company (Changzhou, China). The xenograft model was established by subcutaneous injection of a suspension of HepG2 human liver cancer cells in PBS (200 μL, 1 × 10^7 cells) into the mice. The mice were randomized into four groups and received intraperitoneal injections of vehicle or MPH-5 at concentrations of 1, 5 and 10 mg/kg. Tumor volume was measured at 3-day intervals and calculated as follows: (c × c × d)/2 (c, the smallest diameter; d, the largest diameter). The experiments involving animals were approved by the Ethics Committee of China Pharmaceutical University.

BEL7402 = experiment: MTT cytotoxicity assay, BEL7402; assay type: cell-based; details: Homo sapiens, Bel-7402, 72 h cell treatment
Description: (§1) The cells (5 × 10^4 cells/well) were incubated overnight in 96-well plates. A series of solutions containing varying concentrations of inhibitors were added and incubated at 37°C for a period of 72 h. Subsequently, the culture medium was removed, followed by a subsequent incubation of the cells with a 5 mg/mL MTT stock solution for 4 h. After centrifugation, the precipitate was solubilized in DMSO and gently shaken for 15 min. Finally, the absorbance measurement at 570 nm was completed using a microplate reader. Data analysis was performed using GraphPad Prism 6.0 software.

Huh-1 = experiment: MTT cytotoxicity assay, Huh-1; assay type: cell-based; details: Homo sapiens, 72 h cell treatment
Description: as §1

HDAC8 = biological target: T1, HDAC8 (Homo sapiens, UniProt Q9BY41); experiment: In vitro HDAC8 inhibitory assay; assay type: biochemical
T1 construct: purchased Abcam
T1 sequence (Q9BY41 1-377): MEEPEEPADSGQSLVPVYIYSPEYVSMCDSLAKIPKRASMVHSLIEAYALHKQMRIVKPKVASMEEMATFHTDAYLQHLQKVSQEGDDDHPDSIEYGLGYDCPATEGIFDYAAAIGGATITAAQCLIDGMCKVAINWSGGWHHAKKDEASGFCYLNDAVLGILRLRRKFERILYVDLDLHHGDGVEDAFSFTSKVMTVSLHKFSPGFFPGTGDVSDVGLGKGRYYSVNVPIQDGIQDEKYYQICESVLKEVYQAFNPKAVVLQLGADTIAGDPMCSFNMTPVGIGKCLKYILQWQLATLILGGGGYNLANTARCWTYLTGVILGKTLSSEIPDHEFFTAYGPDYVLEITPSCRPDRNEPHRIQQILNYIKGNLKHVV
Description: Inhibition of HDAC8 was determined in 96-well plates. […] The assessment of fluorescence intensity was executed at 390 nm and 460 nm via a microplate reader.

P-histone H3 = experiment: Gene expression analysis of P-histone H3 in HepG2 cells; assay type: cell-based, human; details: 20 h, 0.25, 1 and 5 μM
Description: Total RNA was extracted after the indicated treatments using the RNeasy Mini Kit (cat. no. 74106; QIAGEN, Hilden, Germany) following the manufacturer’s protocol. The concentration of RNA was measured on a plate reader, and then the extracted RNA was converted to cDNA using a High-Capacity RNA-to-cDNA kit from Applied Biosystems (Thermo Fisher Scientific, Inc.). Quantitative real-time polymerase chain reaction was performed in triplicate in a 96-well optical PCR plate using a QuantStudio Real-Time PCR System. Gene expression levels were evaluated using the comparative CT method. Graphical representations of the data were generated by GraphPad Prism 8.
Previous studies indicate that MPS1 inhibitor exerts its antitumor effects by downregulating the levels of phosphorylated histone H3 ([Naud et al., 2013]), while HDAC8 inhibitor achieves its antitumor activity by upregulating lysine residue 62 acetylation (Ace-K62) levels of pyruvate kinase M2 (PKM2) ([Zhang et al., 2020]). The gene expression of P-histone H3 and Ace-K62 was detected in HepG2 cells with the treatment of MPH-5 for 20 h (at the concentration of 0, 0.25, 1, and 5 μM, respectively). […] As the concentration of MPH-5 increases, the inhibitory effect on P-histone H3 and the promotional effect on Ace-K62 become more pronounced.

[1] = tested on: panel of 68 kinases and other histone deacetylases; experiment: In vitro selectivity assay, whole panel; assay type: biochemical; details: read-out: IC50 on these kinases and other histone deacetylases
Description: (§2) The inhibitory effects of compound MPH-5 on a panel of 68 kinases and other histone deacetylases were evaluated to assess the selectivity profile of MPH-5. This experiment was conducted by ICE Bioscience Inc. (Beijing, China).

EPHB1 = biological target: T2, EPHB1 (Homo sapiens, UniProt P54762); experiment: In vitro selectivity assay; assay type: biochemical; details: selectivity panel
T2 construct: ICE Bioscience Inc. (assay service)
Description: as §2

HDAC4 = biological target: T3, HDAC4 (Homo sapiens, UniProt P56524); experiment: In vitro selectivity assay; assay type: biochemical; details: selectivity panel
T3 construct: ICE Bioscience Inc. (contract assay provider)
Description: as §2

JAK1 = JAK1 (Homo sapiens, UniProt P23458); experiment: In vitro selectivity assay; assay type: biochemical; details: selectivity panel
Description: as §2

EPHA6 = biological target: T4, EPHA6 (Homo sapiens, UniProt Q9UF33); experiment: In vitro selectivity assay; assay type: biochemical; details: selectivity panel
T4 construct: ICE Bioscience Inc. (assay service)
Description: as §2

TYRO3 = TYRO3 (Homo sapiens, UniProt Q06418); experiment: In vitro selectivity assay; assay type: biochemical; details: selectivity panel
Description: as §2

AXL = biological target: T5, AXL (Homo sapiens, UniProt P30530); experiment: In vitro selectivity assay; assay type: biochemical; details: selectivity panel
T5 construct: ICE Bioscience Inc. (assay service)
Description: as §2

HDAC2 = biological target: T6, HDAC2 (Homo sapiens, UniProt Q92769); experiment: In vitro selectivity assay; assay type: biochemical; details: selectivity panel
T6 construct: ICE Bioscience Inc. (contract assay provider)
Description: as §2

HDAC7 = biological target: T7, HDAC7 (Homo sapiens, UniProt Q8WUI4); experiment: In vitro selectivity assay; assay type: biochemical; details: selectivity panel
T7 construct: ICE Bioscience Inc. (Beijing, China), the contract lab that ran the assay
Description: as §2

BLK = biological target: T8, BLK (Homo sapiens, UniProt P51451); experiment: In vitro selectivity assay; assay type: biochemical; details: selectivity panel
T8 construct: ICE Bioscience Inc. (assay service)
Description: as §2

FES = FES (Homo sapiens, UniProt P07332); experiment: In vitro selectivity assay; assay type: biochemical; details: selectivity panel
Description: as §2

T6 sequence (Q92769 whole entry): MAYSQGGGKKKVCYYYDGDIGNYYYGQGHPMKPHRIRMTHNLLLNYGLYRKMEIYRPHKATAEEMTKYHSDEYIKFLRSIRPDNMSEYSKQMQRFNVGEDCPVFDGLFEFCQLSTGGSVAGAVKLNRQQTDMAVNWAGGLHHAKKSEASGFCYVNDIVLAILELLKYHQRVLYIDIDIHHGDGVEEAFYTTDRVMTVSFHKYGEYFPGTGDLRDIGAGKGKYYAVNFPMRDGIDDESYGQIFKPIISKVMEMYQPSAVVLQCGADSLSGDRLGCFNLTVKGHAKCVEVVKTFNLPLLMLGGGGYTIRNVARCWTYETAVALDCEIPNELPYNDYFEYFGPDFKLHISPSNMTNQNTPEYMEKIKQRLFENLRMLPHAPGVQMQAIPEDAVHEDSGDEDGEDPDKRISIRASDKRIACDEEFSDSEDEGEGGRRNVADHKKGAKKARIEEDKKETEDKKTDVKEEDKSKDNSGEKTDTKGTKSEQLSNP
T2 sequence (P54762 18-984): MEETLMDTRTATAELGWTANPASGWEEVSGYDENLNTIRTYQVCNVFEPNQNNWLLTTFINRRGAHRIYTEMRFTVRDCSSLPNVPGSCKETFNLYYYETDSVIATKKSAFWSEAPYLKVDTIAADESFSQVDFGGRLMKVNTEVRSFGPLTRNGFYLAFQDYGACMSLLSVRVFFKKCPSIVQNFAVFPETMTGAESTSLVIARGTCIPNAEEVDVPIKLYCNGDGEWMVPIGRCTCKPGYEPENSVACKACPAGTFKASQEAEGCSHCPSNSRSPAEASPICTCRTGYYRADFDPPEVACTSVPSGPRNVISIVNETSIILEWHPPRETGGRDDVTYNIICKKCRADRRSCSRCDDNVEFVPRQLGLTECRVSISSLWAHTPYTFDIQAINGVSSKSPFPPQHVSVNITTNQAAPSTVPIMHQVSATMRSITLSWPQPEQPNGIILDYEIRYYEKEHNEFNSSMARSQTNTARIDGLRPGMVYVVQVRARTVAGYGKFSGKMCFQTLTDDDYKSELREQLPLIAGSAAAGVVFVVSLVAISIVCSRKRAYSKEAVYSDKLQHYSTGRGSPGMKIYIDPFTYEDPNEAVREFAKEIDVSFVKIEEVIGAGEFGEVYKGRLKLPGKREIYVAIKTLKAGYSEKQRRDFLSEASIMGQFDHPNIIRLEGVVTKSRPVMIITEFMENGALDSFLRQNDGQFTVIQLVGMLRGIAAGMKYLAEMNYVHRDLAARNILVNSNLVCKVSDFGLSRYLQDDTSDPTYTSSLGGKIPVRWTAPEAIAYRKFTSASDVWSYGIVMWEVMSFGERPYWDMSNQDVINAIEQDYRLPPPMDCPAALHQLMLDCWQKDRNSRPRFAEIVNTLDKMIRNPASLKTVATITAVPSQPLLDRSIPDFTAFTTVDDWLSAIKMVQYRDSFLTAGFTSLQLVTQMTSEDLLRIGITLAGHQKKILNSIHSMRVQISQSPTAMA
JAK1, sequence (P23458 whole entry): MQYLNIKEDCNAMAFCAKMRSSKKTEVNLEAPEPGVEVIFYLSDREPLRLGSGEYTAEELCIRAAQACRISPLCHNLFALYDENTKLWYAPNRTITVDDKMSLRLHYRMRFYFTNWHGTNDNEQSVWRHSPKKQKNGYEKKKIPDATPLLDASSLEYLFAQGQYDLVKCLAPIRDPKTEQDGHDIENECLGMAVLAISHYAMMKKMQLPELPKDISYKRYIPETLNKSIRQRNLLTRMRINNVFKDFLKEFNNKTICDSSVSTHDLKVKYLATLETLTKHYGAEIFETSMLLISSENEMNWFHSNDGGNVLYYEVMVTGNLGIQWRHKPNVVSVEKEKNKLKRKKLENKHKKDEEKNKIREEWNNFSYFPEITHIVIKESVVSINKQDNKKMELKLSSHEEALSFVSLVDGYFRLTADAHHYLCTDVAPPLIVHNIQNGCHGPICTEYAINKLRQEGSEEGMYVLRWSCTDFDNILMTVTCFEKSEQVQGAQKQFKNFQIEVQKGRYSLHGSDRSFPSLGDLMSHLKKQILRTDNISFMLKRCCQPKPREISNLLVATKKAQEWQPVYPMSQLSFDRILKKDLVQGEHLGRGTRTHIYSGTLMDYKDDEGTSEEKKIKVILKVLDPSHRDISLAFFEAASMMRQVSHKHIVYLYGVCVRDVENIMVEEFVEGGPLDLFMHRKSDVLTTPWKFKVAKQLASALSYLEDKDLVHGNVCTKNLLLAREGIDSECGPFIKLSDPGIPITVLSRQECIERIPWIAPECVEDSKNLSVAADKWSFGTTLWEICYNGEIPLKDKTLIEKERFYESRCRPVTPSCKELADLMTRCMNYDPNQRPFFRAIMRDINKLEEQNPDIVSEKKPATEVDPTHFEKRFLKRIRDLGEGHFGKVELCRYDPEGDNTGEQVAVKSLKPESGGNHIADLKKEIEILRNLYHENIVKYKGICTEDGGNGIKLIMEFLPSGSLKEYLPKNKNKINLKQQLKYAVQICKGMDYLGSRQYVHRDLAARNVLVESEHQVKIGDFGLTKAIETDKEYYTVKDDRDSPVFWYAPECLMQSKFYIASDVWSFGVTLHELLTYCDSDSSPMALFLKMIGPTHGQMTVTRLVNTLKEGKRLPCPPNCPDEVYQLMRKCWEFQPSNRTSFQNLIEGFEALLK
T4 sequence (Q9UF33 23-1036): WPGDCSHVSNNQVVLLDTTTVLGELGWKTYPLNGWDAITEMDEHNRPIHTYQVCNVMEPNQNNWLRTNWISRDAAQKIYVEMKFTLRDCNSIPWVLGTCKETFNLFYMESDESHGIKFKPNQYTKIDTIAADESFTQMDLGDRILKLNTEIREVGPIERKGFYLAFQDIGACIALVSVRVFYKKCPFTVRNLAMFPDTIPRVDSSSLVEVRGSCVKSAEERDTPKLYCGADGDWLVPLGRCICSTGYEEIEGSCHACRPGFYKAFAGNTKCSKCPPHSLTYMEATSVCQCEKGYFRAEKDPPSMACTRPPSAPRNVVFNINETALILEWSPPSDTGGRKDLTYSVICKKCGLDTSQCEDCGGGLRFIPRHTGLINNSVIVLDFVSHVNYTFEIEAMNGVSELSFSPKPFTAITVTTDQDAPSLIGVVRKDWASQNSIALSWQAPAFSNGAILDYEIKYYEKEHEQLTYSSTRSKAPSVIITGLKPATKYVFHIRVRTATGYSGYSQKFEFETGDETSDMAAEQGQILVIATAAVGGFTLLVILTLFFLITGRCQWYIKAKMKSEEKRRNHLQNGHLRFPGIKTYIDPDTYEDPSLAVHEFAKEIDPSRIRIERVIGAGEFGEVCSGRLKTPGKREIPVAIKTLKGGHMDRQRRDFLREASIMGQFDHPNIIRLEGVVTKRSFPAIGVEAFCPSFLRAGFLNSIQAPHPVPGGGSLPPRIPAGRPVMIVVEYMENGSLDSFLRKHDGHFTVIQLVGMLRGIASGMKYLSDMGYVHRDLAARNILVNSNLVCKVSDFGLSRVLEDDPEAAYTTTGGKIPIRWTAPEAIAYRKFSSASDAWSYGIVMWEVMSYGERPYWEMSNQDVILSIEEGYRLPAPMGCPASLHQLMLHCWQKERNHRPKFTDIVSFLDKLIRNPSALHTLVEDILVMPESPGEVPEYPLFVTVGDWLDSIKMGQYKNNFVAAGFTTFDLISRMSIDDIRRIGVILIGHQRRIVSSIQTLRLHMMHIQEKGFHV
T8 sequence (P51451 whole entry): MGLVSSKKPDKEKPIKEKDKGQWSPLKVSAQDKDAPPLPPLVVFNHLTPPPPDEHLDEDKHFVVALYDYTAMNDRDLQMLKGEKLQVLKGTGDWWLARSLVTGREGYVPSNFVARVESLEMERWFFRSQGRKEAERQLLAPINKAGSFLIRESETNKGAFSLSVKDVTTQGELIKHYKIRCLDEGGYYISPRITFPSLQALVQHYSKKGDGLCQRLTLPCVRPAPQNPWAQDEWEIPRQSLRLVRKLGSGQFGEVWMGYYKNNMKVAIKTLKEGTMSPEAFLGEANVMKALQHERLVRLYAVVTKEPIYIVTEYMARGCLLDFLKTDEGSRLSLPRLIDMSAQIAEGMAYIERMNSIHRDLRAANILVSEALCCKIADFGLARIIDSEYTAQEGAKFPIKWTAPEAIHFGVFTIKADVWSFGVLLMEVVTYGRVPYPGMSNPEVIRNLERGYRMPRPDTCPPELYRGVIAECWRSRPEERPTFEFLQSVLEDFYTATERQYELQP
TYRO3, sequence (Q06418 41-890): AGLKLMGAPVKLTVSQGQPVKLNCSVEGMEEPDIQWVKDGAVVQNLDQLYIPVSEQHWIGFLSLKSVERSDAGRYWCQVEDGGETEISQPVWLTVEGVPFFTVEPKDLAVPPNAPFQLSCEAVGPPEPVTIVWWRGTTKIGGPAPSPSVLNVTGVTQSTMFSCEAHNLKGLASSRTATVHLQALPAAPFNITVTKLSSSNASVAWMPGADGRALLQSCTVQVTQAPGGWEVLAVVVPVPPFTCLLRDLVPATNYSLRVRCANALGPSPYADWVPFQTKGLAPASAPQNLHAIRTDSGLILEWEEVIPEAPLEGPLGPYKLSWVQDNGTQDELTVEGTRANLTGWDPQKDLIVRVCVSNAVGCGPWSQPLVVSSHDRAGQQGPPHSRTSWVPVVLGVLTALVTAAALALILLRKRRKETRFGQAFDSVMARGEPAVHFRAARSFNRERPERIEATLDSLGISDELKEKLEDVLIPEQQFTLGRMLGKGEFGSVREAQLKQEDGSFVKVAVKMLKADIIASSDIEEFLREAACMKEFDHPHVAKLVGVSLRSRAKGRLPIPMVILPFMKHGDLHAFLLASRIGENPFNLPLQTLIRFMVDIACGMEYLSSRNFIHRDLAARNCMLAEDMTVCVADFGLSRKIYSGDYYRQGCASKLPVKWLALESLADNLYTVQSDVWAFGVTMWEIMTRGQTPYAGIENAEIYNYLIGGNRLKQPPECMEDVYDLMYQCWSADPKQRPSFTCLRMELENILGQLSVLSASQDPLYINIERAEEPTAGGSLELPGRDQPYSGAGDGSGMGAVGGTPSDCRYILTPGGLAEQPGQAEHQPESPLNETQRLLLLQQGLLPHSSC

Cn1cc(-c2cc3cnc(Nc4ccc(-c5cncn5/C=C/C(=O)NO)cc4Cl)cc3n2C(=O)OC(C)(C)C)cn1 [MPH-5]
body weight change (HepG2 xenograft tumor; HepG2 xenograft mice): did not induce any significant body weight change
tumor growth (tumor volume) (HepG2 xenograft tumor; HepG2 xenograft, vs vehicle): significantly and dose-dependently inhibited the tumor growth
IC50 (BEL7402): 0.86 µM
IC50 (Huh-1): 0.32 µM
IC50 (HDAC8; 90 min at 37°C): 0.00607 ± 0.00037 µM
HDAC8 IC50 of MPH-5 relative to belinostat (HDAC8; vs belinostat): about 4 fold
phosphorylated histone H3 levels (P-histone H3): dose-dependent regulation
IC50 [1]: > 10 µM
IC50 (EPHB1): > 10 µM
IC50 (HDAC4): > 10 µM
IC50 (JAK1): > 10 µM
IC50 (EPHA6): > 10 µM
IC50 (TYRO3): > 10 µM
IC50 (AXL): > 10 µM
IC50 (HDAC2): > 10 µM
IC50 (HDAC7): > 10 µM
IC50 (BLK): > 10 µM
IC50 (FES): > 10 µM
